Data: US9758492B2, “IDO inhibitors” (Bristol-Myers Squibb Company, priority 2013, dated 2017)

These compounds were tested against IDO (Homo sapiens, UniProt P14902) (assay: LLE_IDO_ABS_DR (IDO assay)).
Chain of IDO (P14902 whole entry): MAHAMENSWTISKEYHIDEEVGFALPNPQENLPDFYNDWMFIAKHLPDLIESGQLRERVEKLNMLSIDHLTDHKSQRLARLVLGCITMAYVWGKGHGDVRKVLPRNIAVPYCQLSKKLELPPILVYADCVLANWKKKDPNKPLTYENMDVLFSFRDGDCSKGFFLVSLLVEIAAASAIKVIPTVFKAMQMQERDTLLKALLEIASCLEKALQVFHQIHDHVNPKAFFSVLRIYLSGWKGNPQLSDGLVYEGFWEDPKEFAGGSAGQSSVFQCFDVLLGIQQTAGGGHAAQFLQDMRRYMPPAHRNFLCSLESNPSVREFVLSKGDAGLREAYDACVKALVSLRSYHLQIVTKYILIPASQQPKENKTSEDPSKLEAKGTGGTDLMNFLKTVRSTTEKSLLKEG

IC50 [nM]	Compound
60	Cc1ccc(NC(=O)Nc2cc(-c3ccccc3-c3nnn[nH]3)ccc2N(CCC(F)(F)F)CC(C)C)cc1 [Example 199, 1-(4-(isobutyl(3,3,3-trifluoropropyl)amino)-2′-(1H-tetrazol-5-yl)-[1,1′-biphenyl]-3-yl)-3-(p-tolyl)urea]
110	Cc1ccc(NC(=O)Nc2cc(-c3cc(F)ccc3C(=O)O)ccc2N(CCC(F)(F)F)CC(C)C)cc1 [Example 200, 5-fluoro-4′-(isobutyl (3,3,3-trifluoropropyl)amino)-3′-(3-(p-tolyl)ureido)-[1,1′-biphenyl]-2-carboxylic acid]
4.46	CC(C)CN(CCC(C)C(F)(F)F)c1ccc(-c2ccccc2-c2nnn[nH]2)cc1NC(=O)Nc1ccccc1F (stereo not shown) [Example 201, 1-(2-fluorophenyl)-3-(4-(isobutyl(4,4,4-trifluoro-3-methylbutyl)amino)-2′-(1H-tetrazol-5-yl)-[1,1′-biphenyl]-3-yl)urea]
10	Cc1ccc(NC(=O)Nc2cc(-c3ccccc3-c3nnn[nH]3)ccc2N(CCC(C)C(F)(F)F)CC(C)C)cc1 (stereo not shown) [Example 202, 1-(4-(isobutyl(4,4,4-trifluoro-3-methylbutyl)amino)-2′-(1H-tetrazol-5-yl)-[1,1′-biphenyl]-3-yl)-3-(p-tolyl)urea]
7.31	Cc1ccc(NC(=O)Nc2cc(-c3cc(F)ccc3C(=O)O)ccc2N(CCC(C)C(F)(F)F)CC(C)C)cc1 (stereo not shown) [Example 203, 5-fluoro-4′-(isobutyl (4,4,4-trifluoro-3-methylbutyl)amino)-3′-(3-(p-tolyl)ureido)-[1,1′-biphenyl]-2-carboxylic acid]
5.26	CC(C)CN(CCC(C)C(F)(F)F)c1ccc(-c2cc(F)ccc2C(=O)O)cc1NC(=O)Nc1ccccc1F (stereo not shown) [Example 204, 5-fluoro-3′-(3-(2-fluorophenyl)ureido)-4′-(isobutyl(4,4,4-trifluoro-3-methylbutyl)amino)-[1,1′-biphenyl]-2-carboxylic acid]
20	Cc1ccc(NC(=O)Nc2cc(-c3ccccc3C(=O)O)ccc2N(CCC(C)C(F)(F)F)CC(C)C)cc1 (stereo not shown) [Example 205, 4′-(isobutyl (4,4,4-trifluoro-3-methylbutyl)amino)-3′-(3-(p-tolyl)ureido)-[1,1′-biphenyl]-2-carboxylic acid]
600	Cc1ccc(NC(=O)Nc2cc(-c3ccccc3C(=O)O)ccc2Nc2ccccc2C(C)(C)C)cc1 [Example 206, 4′((2-(tert-butyl)phenyl)amino)-3′-(3-(p-tolyl)ureido)-[1,1′-biphenyl]-2-carboxylic acid]
130	CN(c1ccc(-c2ccccc2-c2nnn[nH]2)cc1NC(=O)Nc1ccccc1F)c1ccccc1C(C)(C)C [Example 207, 1-(4-((2-(tert-butyl)phenyl) (methyl)amino)-2′-(1H-tetrazol-5-yl)-[1,1′-biphenyl]-3-yl)-3-(2-fluorophenyl)urea]
50	Cc1ccc(NC(=O)Nc2cc(-c3ccccc3-c3nnn[nH]3)ccc2Nc2ccccc2C(C)(C)C)cc1 [Example 208, 1-(4-((2-(tert-butyl)phenyl)amino)-2′-(1H-tetrazol-5-yl)-[1,1′-biphenyl]-3-yl)-3-(p-tolyl)urea]
560	COc1ccc(-c2ccc(N(C)c3ccccc3C(C)(C)C)c(NC(=O)Nc3ccccc3F)c2)cc1C(=O)O [Example 209, 4′-((2-(tert-butyl)phenyl) (methyl)amino)-3′-(3-(2-fluorophenyl)ureido)-4-methoxy-[1,1′-biphenyl]-3-carboxylic acid]
210	Cc1ccc(NC(=O)Nc2cc(-c3ccccc3-c3nnn[nH]3)ccc2N(C)c2ccccc2C(C)(C)C)cc1 [Example 210, 1-(4-((2-(tert-butyl)phenyl)(methyl)amino)-2′-(1H-tetrazol-5-yl)-[1,1′-biphenyl]-3-yl)-3-(p-tolyl)urea]
2.52	Cc1ccc(NC(=O)Nc2cc(-c3ccccc3C(=O)O)c(F)cc2N(CC(C)C)C2CCCCC2)cc1 [Example 225]
2.67	CC(C)CN(c1cc(F)c(-c2cc(F)ccc2C(=O)O)cc1NC(=O)Nc1ccc(F)cc1F)C1CCCCC1 [Example 226, 4′-(cyclohexyl(isobutyl)ami-no)-5′-(3-(2,4-difluorophenyl)ureido)-2′,5-difluoro-[1,1′-biphenyl]-2-carboxylic acid]
2.91	Cc1ccc(NC(=O)Nc2cc(-c3ccccc3-c3nnn[nH]3)c(F)cc2N(CC(C)C)C2CCCCC2)cc1 [Example 227, 1-(4-(cyclohexyl(isobutyl)ami-no)-6-fluoro-2′-(1H-tetrazol-5-yl)biphenyl-3-yl)-3-p-tolylurea]
1.74	CC(C)CN(c1cc(F)c(-c2ccccc2C(=O)O)cc1NC(=O)Nc1ccccc1F)C1CCCCC1 [Example 228, 4′-(cyclohexyl(isobutyl)amio-no)-2′-fluoro-5′-(3-(2-fluorophenyl)ureido) biphenyl-2-carboxylic acid]
2.56	CC(C)CN(c1cc(F)c(-c2cc(F)ccc2C(=O)O)cc1NC(=O)Nc1ccccc1F)C1CCCCC1 [Example 229, 4′-(cyclohexyl(isobutyl)ami-no)-2′,5-difluoro-5′-(3-(2-fluorophenyl)ureido) biphenyl-2-carboxylic acid]
2.14	CC(C)CN(c1cc(F)c(-c2ccccc2C(=O)O)cc1NC(=O)Nc1ccc(F)cc1F)C1CCCCC1 [Example 230, 4′-(cyclohexyl(isobutyl)ami-no)-5′-(3-(2,4-difluorophenyl)ureido)-2′-fluorobiphenyl-2-carboxylic acid]
660	Cc1ccc(NC(=O)Nc2cc(-c3ccccc3C(=O)NS(C)(=O)=O)ccc2N(CC(C)C)CC(C)C)cc1 [Example 232, 4′-(Diisobutylamino)-N-(methylsulfonyl)-3′-(3-(p-tolyl)ureido)-[1,1′-biphenyl]-2-carboxamide]

IC50 [nM]	Compound
9370	Cc1ccc(NC(=O)Nc2cc(-c3ccccc3C(=O)NS(=O)(=O)C(F)(F)F)ccc2N(CC(C)C)CC(C)C)cc1 [Example 234]
790	Cc1ccc(NC(=O)Nc2cc(-c3ccccc3-c3nnn[nH]3)ccc2N2CC(C)CC(C)C2)cc1 (stereo not shown) [Example 235, 1-(4-(3,5-Dimethylpiperidin-1-yl)-2′-(1H-tetrazol-5-yl)-[1,1′-biphenyl]-3-yl)-3-(p-tolyl)urea]
2140	CC1CC(C)CN(c2ccc(-c3ccccc3-c3nnn[nH]3)cc2NC(=O)Nc2ccc(F)cc2)C1 (stereo not shown) [Example 236]
1290	CC1CC(C)CN(c2ccc(-c3ccccc3-c3nnn[nH]3)cc2NC(=O)Nc2ccccc2F)C1 (stereo not shown) [Example 237]
750	CC(C)CN(CC(C)C)c1ccc(-c2ccccc2-c2nnn[nH]2)cc1NC(=O)Nc1ccccn1 [Example 238, 1-(4-(Diisobutylamino)-2′-(1H-tetrazol-5-yl)-[1,1′-biphenyl]-3-yl)-3-(pyridin-2-yl)urea]
3860	CC(C)CN(CC(C)C)c1ccc(-c2ccccc2-c2nnn[nH]2)cc1NC(=O)Nc1ncccn1 [Example 239, 1-(4-(Diisobutylamino)-2′-(1H-tetrazol-5-yl)-[1,1′-biphenyl]-3-yl)-3-(pyrimidin-2-yl)urea]
2230	CC(C)CN(CC(C)C)c1ccc(-c2ccccc2-c2nn[nH]n2)cc1NC(=O)NC(C)(C)Cc1ccc(F)cc1 [Example 240, 1-(4-(diisobutylamino)-2′-(2H-tetrazol-5-yl)-[1,1′-biphenyl]-3-yl)-3-(1-(4-fluorophenyl)-2-methylpropan-2-yl)urea]
20	C#Cc1cccc(NC(=O)Nc2cc(-c3ccccc3-c3nnn[nH]3)ccc2N(CC(C)C)CC(C)C)c1 [Example 241, 1-(4-(diisobutylamino)-2′-(1H-tetrazol-5-yl)-[1,1′-biphenyl]-3-yl)-3-(3-ethynylphenyl)urea]
4.72	C#CCOc1cccc(NC(=O)Nc2cc(-c3ccccc3-c3nnn[nH]3)ccc2N(CC(C)C)CC(C)C)c1 [Example 242, 1-(4-(diisobutylamino)-2′-(1H-tetrazol-5-yl)-[1,1′-biphenyl]-3-yl)-3-(3-(prop-2-yn-1-yloxy)phenyl)urea]
0.76	CC(C)CN(CC(C)C)c1ccc(-c2ccccc2-c2nnn[nH]2)cc1NC(=O)Nc1c(F)cc(Cl)cc1F [Example 243, 1-(4-chloro-2,6-difluorophenyl)-3-(4-(diisobutylamino)-2′-(1H-tetrazol-5-yl)-[1,1′-biphenyl]-3-yl)urea]
9.3	C#CCOc1ccc(NC(=O)Nc2cc(-c3ccccc3-c3nnn[nH]3)ccc2N(CC(C)C)CC(C)C)cc1 [Example 244]
180	CC(C)CNC(=O)Nc1cc(-c2ccccc2-c2nnn[nH]2)ccc1N(CC(C)C)CC(C)C [Example 245, 1-(4-(diisobutylamino)-2′-(1H-tetrazol-5-yl)-[1,1′-biphenyl]-3-yl)-3-isobutylurea]
1220	CC(C)CN(CC(C)C)c1ccc(-c2ccccc2-c2nnn[nH]2)cc1NC(=O)NC(C)C [Example 246, 1-(4-(diisobutylamino)-2′-(1H-tetrazol-5-yl)-[1,1′-biphenyl]-3-yl)-3-isopropylurea]
2760	CC(C)CN(CC(C)C)c1ccc(-c2ccccc2-c2nnn[nH]2)cc1NC(=O)Nc1cccc2cnccc12 [Example 247, 1-(4-(diisobutylamino)-2′-(1H-tetrazol-5-yl)-[1,1′-biphenyl]-3-yl)-3-(isoquinolin-5-yl)urea]
5070	CNC(=O)c1ccccc1NC(=O)Nc1cc(-c2ccccc2-c2nnn[nH]2)ccc1N(CC(C)C)CC(C)C [Example 248, 2-(3-(4-(diisobutylamino)-2′-(1H-tetrazol-5-yl)-[1,1′-biphenyl]-3-yl)ureido)-N-methylbenzamide]
140	CC(C)CN(CC(C)C)c1ccc(-c2ccccc2-c2nnn[nH]2)cc1NC(=O)Nc1ccc(C(F)(F)F)cc1 [Example 249]
930	CC(C)CN(CC(C)C)c1ccc(-c2ccccc2-c2nnn[nH]2)cc1NC(=O)Nc1ccc(F)c(C#N)c1 [Example 250, 1-(3-Cyano-4-fluorophenyl-3-(4-diisobutylamino)-2′-(1H-tetrazol-5-yl)-[1,1′-biphenyl]-3-yl)urea]
90	CC(C)CN(CC(C)C)c1ccc(-c2ccccc2-c2nnn[nH]2)cc1NC(=O)Nc1cc(F)cc(Cl)c1 [Example 251, 1-(3-chloro-5-fluorophenyl)-3-(4-(diisobutylamino)-2′-(1H-tetrazol-5-yl)-[1,1′-biphenyl]-3-yl)urea]
